# Measured values taken from PMC12531871, “Indole-2-carboxamides Optimization for Antiplasmodial Activity” (ACS Bio & Med Chem Au, 2025).
# Like-named read-outs stand apart in the source and are kept apart here.
# Legend:
# [1] = test system: P. falciparum 3D7 strain (Pf3D7); experiment: Antiplasmodial activity against P. falciparum 3D7 blood-stage parasites (SYBR Green, 72 h); format: cell-based, Plasmodium falciparum; settings: for IC50: Plasmodium falciparum; for Pf3D7-IC50 compared to 6a: regio-isomers compared to 6a
# Rat hepatocyte stability = format: in vitro ADME; settings: rat hepatocyte stability
# Experimental: The reaction was terminated with the addition of ice-cold MeCN at designated time points. The samples were then centrifuged (4200 rpm) for 20 min at 20 °C, and the supernatant was half diluted in water and then analyzed using LCMS/MS. The % parent compound remaining, half-life (t 1/2), and clearance (CLint) were calculated using standard methodology. The experiment was carried out in duplicate. Diltiazem, 7-Ethoxy Coumarin, Propranolol, and Midazolam were used as reference standards.
# [2] = Human liver microsome stability; format: in vitro ADME; settings: human, pooled human liver microsomes, human microsomal intrinsic clearance; read-out: hMics, human microsome Clint
# Experimental: A solution of the test compounds in phosphate buffer solution (1 μM) was incubated in pooled human or mouse liver microsomes (0.5 mg/mL) for 0, 5, 20, 30, 45, and 60 min at 37 °C in the presence and absence of an NADPH regeneration system (NRS). The tests were conducted by […], India. The reaction was terminated with the addition of ice-cold acetonitrile, containing a […] standard, at designated time points. The sample was centrifuged (4200g) for 20 min at 20 °C and the supernatant was diluted by half in water and then analyzed by LC-MS/MS. The % parent compound remaining, half-life (t 1/2) and clearance (CLint) were calculated using standard methodology. The experiment was carried out in duplicate. Verapamil, diltiazem, phenacetin, and imipramine were used as reference standards.
# [3] = Kinetic solubility at pH 7.4; format: physicochemical; settings: phosphate-buffered saline, 25 °C, pH 7.4, aqueous buffer, kinetic from dmso stock; read-out: Kinetic solubility (Sol)
# Experimental: Kinetic solubility assay was performed using UV–vis detection. […] The samples were filtered using a multiscreen solubility filter plate. The filtrate was diluted by 50% with MeCN. A five-point linearity curve was prepared in PBS/MeCN (1:1, v/v) at 200, 150, 75, 25, and 2.5 μM. Blank, linearity, and test samples (n = 2) were transferred to a UV-readable plate, and the plate was scanned for absorbance. Best-fit calibration curves were constructed using the calibration standards and used to determine the test sample solubility. The experiment was carried out in duplicate. Diethylstilbestrol, Haloperidol, and Diclofenac Sodium were used as reference standards.
# [4] = eLogD at pH 7.4, miniaturized shake flask method; format: physicochemical; settings: 1-octanol/PBS (1:1, v/v), pH 7.4, pH 7.4, miniaturized shake flask method
# Experimental: eLogD at pH 7.4 was determined using a miniaturized shake flask method. A solution of a presaturated mixture of 1-octanol and phosphate-buffered saline (PBS) (1:1, v/v) and the test compound (75 μM) was incubated at 25 °C with constant shaking (850 rpm) for 2h. After incubation, the organic and aqueous phases were separated, and samples of each phase were transferred to a plate for dilution. […] The samples were quantitated using LC-MS/MS. The experiment was carried out in duplicate. Propranolol, Amitriptyline, and Midazolam were used as reference standards.
# P. falciparum K1 strain = experiment: Antiplasmodial activity against resistant P. falciparum K1; format: cell-based; settings: Plasmodium falciparum, 3D7 / K1; resistant K1, in parallel with 3D7; read-out: IC50^K1 ± SD
# P. falciparum Dd2 strain = experiment: Antiplasmodial activity against resistant P. falciparum Dd2; format: cell-based; settings: Plasmodium falciparum, 3D7 / DD2; resistant Dd2, in parallel with 3D7; read-out: IC50^Dd2 ± SD
# [5] = Resazurin assay for cytotoxicity in HepG2 cells; format: cell-based, human; settings: human, HepG2 cells; HepG2 cell line, 72 h, resazurin
# Experimental: HepG2 cells were trypsinized, counted, and distributed in a 96-well plate at a density of 30,000 cells per well (180 μL). The plate was incubated at 37 °C and 5% CO2 for 24 h. Following incubation, 20 μL of serial dilutions of the tested compounds were added to the wells, with concentrations ranging from 30 to 0.47 μM. The plate was incubated for an additional 72 h at 37 °C and 5% CO2. Untreated cells served as positive controls, while wells containing only medium were used as negative controls. Postincubation, microscopy was employed to determine the highest compound concentration for treatment results. […] Concentration–response curves were generated, and half-maximal inhibitory concentration (CC50) values were determined using nonlinear regression analysis.
# [6] = 3D7, 72 h, 3D7 strain, 72 h, SYBR Green, read-out: Pf3D7-IC50
# [7] = 3D7 / DD2, sensitive 3D7, in parallel with K1 and Dd2, read-out: IC50^3D7 ± SD
Compound,"IC50 [1, 6] [µM]",R Heps (Clint) (Rat hepatocyte stability) [μL/min/10^6],microsomal CLint at 1 μM [2] [µL/min/mg],solubility kinetic at 2 h [3] [µM],logD at 2 h [4],also measured
"O=C(c1cc2ccccc2[nH]1)N(Cc1cccnc1)CC1CCNC1 (centres unmarked) [Compound 6b, N-(3-Pyridylmethyl)-N-(pyrrolidin-3-ylmethyl)-1H-indole-2-carboxamide]",8.3 ± 0.2,–,–,–,–,–
"O=C(c1c[nH]c2ccc(Cl)cc12)N(Cc1cccnc1)CC1CCNC1 (centres unmarked) [Compound 6h, 5-Chloro-N-(3-pyridylmethyl)-N-(pyrrolidin-3-ylmethyl)-1H-indole-3-carboxamide]",> 10,–,–,–,–,–
"O=C(c1cc2cc(Cl)ccc2[nH]1)N(Cc1ccc(C(F)(F)F)nc1)CC1CCNC1 (centres unmarked) [Compound 6o, 5-Chloro-N-(pyrrolidin-3-ylmethyl)-N-[[6-(trifluoromethyl)-3-pyridyl]methyl]-1H-indole-2-carboxamide]",4.3 ± 0.2,10,3,883,1.5,–
"Cc1c(C(=O)N(Cc2cccnc2)CC2CCNC2)[nH]c2ccc(Cl)cc12 (centres unmarked) [Compound 6g, 5-Chloro-3-methyl-N-(3-pyridylmethyl)-N-(pyrrolidin-3-ylmethyl)-1H-indole-2-carboxamide]",5.8,–,–,–,–,"IC50 (P. falciparum K1 strain): 6.3 ± 0.3 µM; IC50 (P. falciparum Dd2 strain): 9 ± 0.7 µM; IC50 [1, 7]: 4.2 ± 0.5 µM"
"O=C(c1cc2cc(Cl)ccc2[nH]1)N(Cc1cccnc1)C[C@H]1CCNC1 [6a (S), 5-Chloro-N-(3-pyridylmethyl)-N-[[(3S)-pyrrolidin-3-yl]methyl]-1H-indole-2-carboxamide]",2 ± 0.4,12,3,196,0.7,CC50 at 72 h [5]: > 30 µM
"O=C(c1cc2cc(Cl)ccc2[nH]1)N(Cc1ccncc1)CC1CCNC1 (centres unmarked) [Compound 6l, 5-Chloro-N-(4-pyridylmethyl)-N-(pyrrolidin-3-ylmethyl)-1H-indole-2-carboxamide]",12.8 ± 0.8,–,–,–,–,Pf3D7-IC50 compared to 6a [1]: > 10 fold
"CN1CCC(CN(Cc2cccnc2)C(=O)c2cc3cc(Cl)ccc3[nH]2)C1 (centres unmarked) [Compound 7a, 5-Chloro-N-[(1-methylpyrrolidin-3-yl)methyl]-N-(pyridin-3-ylmethyl)-1H-indole-2-carboxamide]",0.46 ± 0.05,28,20,190,1.6,"IC50 (P. falciparum K1 strain): 1.2 ± 0.3 µM; IC50 (P. falciparum Dd2 strain): 2.2 ± 0.3 µM; IC50 [1, 7]: 0.8 ± 0.2 µM"
"O=C(c1cc2cc(Cl)ccc2[nH]1)N(Cc1cccnc1)CC1CCNCC1 [Compound 6w, 5-Chloro-N-(4-piperidylmethyl)-N-(3-pyridylmethyl)-1H-indole-2-carboxamide]",0.9 ± 0.1,9,< 3,> 1000,0.5,–
"O=C(c1cc2cc(Cl)ccc2[nH]1)N(Cc1cccnc1)C[C@@H]1CCNC1 [6a (R), 5-Chloro-N-(3-pyridylmethyl)-N-[[(3R)-pyrrolidin-3-yl]methyl]-1H-indole-2-carboxamide]",1 ± 0.2,8,10,196,0.7,CC50 at 72 h [5]: > 30 µM
"O=C(c1cccc(Cl)c1)N(Cc1cccnc1)CC1CCNC1 (centres unmarked) [Compound 6j, 3-Chloro-N-(pyridin-3-ylmethyl)-N-(pyrrolidin-3-ylmethyl)benzamide]",> 25,–,–,–,–,–
"CNCCN(CC1CCNC1)C(=O)c1cc2cc(Cl)ccc2[nH]1 (centres unmarked) [Compound 6q, 5-Chloro-N-[2-(methylamino)ethyl]-N-(pyrrolidin-3-ylmethyl)-1H-indole-2-carboxamide]",> 10,–,–,–,–,–
"O=C(c1cc2cc(Cl)ccc2[nH]1)N(Cc1ccccn1)CC1CCNC1 (centres unmarked) [Compound 6m, 5-Chloro-N-(2-pyridylmethyl)-N-(pyrrolidin-3-ylmethyl)-1H-indole-2-carboxamide]",14.1 ± 0.6,–,–,–,–,Pf3D7-IC50 compared to 6a [1]: > 10 fold
"O=C(c1cc2cc(Cl)ccc2[nH]1)N(Cc1cccnc1)CC1CCOC1 (centres unmarked) [Compound 5r, 5-Chloro-N-(pyridin-3-ylmethyl)-N-((tetrahydrofuran-3-yl)methyl)-1H-indole-2-carboxamide]",> 10,–,–,–,–,–
"O=C(c1nc2cc(Cl)ccc2[nH]1)N(Cc1cccnc1)CC1CCNC1 (centres unmarked) [Compound 6i, 5-Chloro-N-(3-pyridylmethyl)-N-(pyrrolidin-3-ylmethyl)-1H-benzimidazole-2-carboxamide]",> 10,–,–,–,–,–
"O=C1CC(CN(Cc2cccnc2)C(=O)c2cc3cc(Cl)ccc3[nH]2)CN1 (centres unmarked) [Compound 5s, 5-Chloro-N-[(5-oxopyrrolidin-3-yl)methyl]-N-(3-pyridylmethyl)-1H-indole-2-carboxamide]",> 10,–,–,–,–,–
"CS(=O)(=O)c1ccc(CN(CC2CCNC2)C(=O)c2cc3cc(Cl)ccc3[nH]2)cn1 (centres unmarked) [Compound 6p, 5-Chloro-N-[(6-methylsulfonyl-3-pyridyl)methyl]-N-(pyrrolidin-3-ylmethyl)-1H-indole-2-carboxamide]",> 10,–,–,–,–,–
"O=C(c1cc2cc(Cl)ccc2[nH]1)N(Cc1cnccn1)CC1CCNC1 (centres unmarked) [Compound 6n, 5-Chloro-N-(pyrazin-2-ylmethyl)-N-(pyrrolidin-3-ylmethyl)-1H-indole-2-carboxamide]",> 10,–,–,–,–,–
"O=C(c1cc2cc(Cl)ccc2[nH]1)N(Cc1ccccc1)CC1CCNC1 (centres unmarked) [Compound 6k, N-Benzyl-5-chloro-N-(pyrrolidin-3-ylmethyl)-1H-indole-2-carboxamide]",6.7 ± 0.3,–,–,–,–,–
"CNCCN(Cc1cccnc1)C(=O)c1cc2cc(Cl)ccc2[nH]1 [Compound 6u, 5-Chloro-N-[2-(methylamino)ethyl]-N-(3-pyridylmethyl)-1H-indole-2-carboxamide]",1.8 ± 0.2,29,20,148,2.6,–
"O=C(c1cc2cccc(Cl)c2[nH]1)N(Cc1cccnc1)CC1CCNC1 (centres unmarked) [Compound 6c, 7-Chloro-N-(3-pyridylmethyl)-N-(pyrrolidin-3-ylmethyl)-1H-indole-2-carboxamide]",2.2 ± 0.3,60,4,> 1000,0.2,"IC50 (P. falciparum K1 strain): 4.9 ± 0.6 µM; IC50 (P. falciparum Dd2 strain): 8.2 ± 0.3 µM; IC50 [1, 7]: 2.3 ± 0.6 µM"
"O=C(c1cc2cc(Cl)ccc2[nH]1)N(Cc1cccnc1)C1CCNC1 (centres unmarked) [Compound 6v, 5-Chloro-N-(3-pyridylmethyl)-N-pyrrolidin-3-yl-1H-indole-2-carboxamide]",0.57 ± 0.07,17,< 3,> 1000,0.9,–
"O=C(c1cc2cc(F)ccc2[nH]1)N(Cc1cccnc1)CC1CCNC1 (centres unmarked) [Compound 6e, 5-Fluoro-N-(3-pyridylmethyl)-N-(pyrrolidin-3-ylmethyl)-1H-indole-2-carboxamide]",8.8 ± 0.1,32,7,> 1000,-0.1,–
